Laboratory results published in PubChem BioAssay (NCI).
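Assay format: 96-well plates, 48-hour exposure. Here, GI50 denotes the concentration required for 50% inhibition of growth. Definition used: TGI = concentration required for complete inhibition of growth.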

Key:
Test in all cases: NCI tumour cell line growth inhibition, 48 h
MDA-N = system: MDA-N
DMS 273 small cell lung = system: DMS 273 small cell lung
HOP-18 NSCLC = system: HOP-18 NSCLC
SNB-78 CNS = system: SNB-78 CNS
MCF7 breast = system: MCF7 breast
KM20L2 colon = system: KM20L2 colon
T-47D breast = system: T-47D breast
MDA-MB-435 = system: MDA-MB-435
RXF-631 renal = system: RXF-631 renal

CCN(CC)CCNC(=O)c1ccc(C)c(OCc2ccccc2)c1[N+](=O)[O-]
TGI (MDA-N): 38.3 µM
TGI (DMS 273 small cell lung): 46.9 µM
TGI (HOP-18 NSCLC): > 100 µM
TGI (SNB-78 CNS): > 100 µM
TGI (MCF7 breast): > 53.1 µM
TGI (KM20L2 colon): 64.5 µM
TGI (T-47D breast): 58 µM

OCCNCCOc1ccc(/C(=C(/Cl)c2ccccc2)c2ccccc2)cc1
TGI (HOP-18 NSCLC): 33.4 µM
TGI (SNB-78 CNS): 23.6 µM
TGI (KM20L2 colon): 8.56 µM

c1ccc(CSc2nc3ccccc3nc2-c2cccs2)cc1
TGI (DMS 273 small cell lung): > 100 µM
TGI (HOP-18 NSCLC): > 100 µM
TGI (SNB-78 CNS): > 100 µM

Cc1ccc(S(=O)(=O)NC(=O)NC2=NC(C)(C)N(c3ccc(Cl)c(Cl)c3)C(N)=N2)cc1
TGI (MDA-N): > 100 µM
TGI (MCF7 breast): > 100 µM
TGI (T-47D breast): > 100 µM

COCOc1ccc(C2(O)Oc3cc(OCOC)ccc3C2C)c(O)c1 (configuration not stated)
TGI (MDA-N): 28.7 µM
TGI (MDA-MB-435): 28.1 µM
TGI (MCF7 breast): 27.9 µM
TGI (T-47D breast): 25.8 µM

Cc1ccc(Nc2nnc(-c3ccc4c(c3)OCO4)o2)c(C)c1
TGI (MDA-N): > 100 µM
TGI (MDA-MB-435): > 100 µM
TGI (MCF7 breast): > 100 µM
TGI (T-47D breast): > 100 µM

O=C1C(=O)N(c2cc(Cl)ccc2Cl)C(=O)C(=O)C1c1nc2ccccc2o1
TGI (RXF-631 renal): > 100 µM
TGI (DMS 273 small cell lung): > 100 µM
TGI (HOP-18 NSCLC): > 100 µM
TGI (SNB-78 CNS): > 100 µM
TGI (KM20L2 colon): > 100 µM

COC1=C(Br)C(=O)c2nc(C)ccc2C1=O
TGI (DMS 273 small cell lung): 31.8 µM
TGI (HOP-18 NSCLC): 30.9 µM
TGI (SNB-78 CNS): 41.6 µM
TGI (KM20L2 colon): 33.3 µM

CCOC(=O)/C(=C/c1cccc(C#N)c1)N(CC)CC
TGI (RXF-631 renal): > 100 µM
TGI (HOP-18 NSCLC): > 100 µM
TGI (SNB-78 CNS): > 100 µM

Nc1nc(N)nc(CCCc2nc(N)nc(N)n2)n1
TGI (MDA-N): > 100 µM
TGI (MDA-MB-435): > 100 µM
TGI (MCF7 breast): > 100 µM
TGI (T-47D breast): > 100 µM

O=S1(=O)OCCOS(=O)(=O)C1Cl
TGI (DMS 273 small cell lung): > 100 µM
TGI (HOP-18 NSCLC): > 100 µM
TGI (SNB-78 CNS): > 100 µM

O=C(OCC(OC(=O)c1ccccc1)C(OC(=O)c1ccccc1)C(OC(=O)c1ccccc1)c1cnn(-c2ccccc2)n1)c1ccccc1 (configuration not stated)
TGI (MDA-N): > 100 µM
TGI (MDA-MB-435): > 100 µM
TGI (MCF7 breast): > 100 µM
TGI (T-47D breast): > 100 µM

CC1C(=O)OC2CC[N+]3([O-])CC=C(COC(=O)C(C)(O)C1(C)O)C23 (configuration not stated)
TGI (MDA-N): > 100 µM
TGI (MDA-MB-435): > 100 µM
TGI (MCF7 breast): > 100 µM
TGI (T-47D breast): > 100 µM

O=c1c2ccccc2nc(-c2ccccc2)n1NC(=S)Nc1ccccc1
TGI (DMS 273 small cell lung): > 100 µM
TGI (HOP-18 NSCLC): > 100 µM

Nc1ccccc1SC1CC(=O)N(c2ccc(Cl)c(Cl)c2)C1=O (configuration not stated)
GI50 (MDA-MB-435): 26.1 µM
TGI (MDA-MB-435): > 100 µM
GI50 (MCF7 breast): 27.1 µM
TGI (MCF7 breast): > 100 µM
GI50 (T-47D breast): 12.6 µM
TGI (T-47D breast): > 100 µM

N.N.NCCCCCCCCCN.O=C([O-])CC(=O)[O-].O=C([O-])CC(=O)[O-].[Pt+4].[Pt+4]
GI50 (DMS 273 small cell lung): > 100 µM
TGI (DMS 273 small cell lung): > 100 µM
GI50 (HOP-18 NSCLC): > 100 µM
TGI (HOP-18 NSCLC): > 100 µM
GI50 (SNB-78 CNS): > 100 µM
TGI (SNB-78 CNS): > 100 µM
GI50 (KM20L2 colon): > 100 µM
TGI (KM20L2 colon): > 100 µM

Cc1nn(C(=O)c2ccc(Cl)cc2)c2c1C(c1ccc(O)cc1)SC(N)=N2 (configuration not stated)
TGI (MDA-N): > 10 µM
TGI (MDA-MB-435): > 10 µM
TGI (MCF7 breast): > 10 µM
TGI (T-47D breast): > 10 µM

Nc1ccc2[nH]cc(CCC(=O)O)c2c1
TGI (MDA-N): > 100 µM
TGI (MDA-MB-435): > 100 µM
TGI (MCF7 breast): > 100 µM
TGI (T-47D breast): > 100 µM

COC(C(=O)[C@@H](O)[C@@H](C)O)[C@@H]1Cc2cc3cc(O[C@H]4C[C@@H](O[C@H]5C[C@@H](O)[C@H](O)C(C)O5)[C@H](O)C(C)O4)c(C)c(O)c3c(O)c2C(=O)[C@H]1O[C@H]1C[C@@H](O[C@H]2C[C@@H](O[C@H]3C[C@@H](O)[C@H](OC)C(C)O3)[C@@H](O)C(C)O2)[C@H](O)C(C)O1 (some centres not stated)
GI50 (MDA-MB-435): 0.0219 µM
TGI (MDA-MB-435): 0.197 µM
GI50 (MCF7 breast): 0.00728 µM
TGI (MCF7 breast): > 33.3 µM
GI50 (T-47D breast): 0.0139 µM
TGI (T-47D breast): 0.237 µM

CN(C)CCSc1nccc(-c2cc3ccccc3s2)n1
TGI (DMS 273 small cell lung): 34.1 µM
TGI (SNB-78 CNS): 47.8 µM

O=C(N/N=C/c1c(Cl)cccc1Cl)c1ccc(C(F)(F)F)nc1Nc1cccc(C(F)(F)F)c1
GI50 (MDA-MB-435): 2.37 µM
TGI (MDA-MB-435): > 100 µM
GI50 (MCF7 breast): 1.03 µM
TGI (MCF7 breast): > 35.8 µM
GI50 (T-47D breast): 0.971 µM
TGI (T-47D breast): 11.8 µM

C=CCN1CC2CON(C(=O)C(OC)(c3ccccc3)C(F)(F)F)C2C1C(C)C (configuration not stated)
GI50 (MDA-N): 31.8 µg/mL
GI50 (MDA-MB-435): 41.8 µg/mL
GI50 (MCF7 breast): 26.2 µg/mL
TGI (MCF7 breast): 78.7 µg/mL
GI50 (T-47D breast): 34.5 µg/mL

CC1CN1c1c(C(=O)/C=C/c2ccc(Cl)cc2)c(-c2ccccc2)nn(C)c1=O (configuration not stated)
TGI (DMS 273 small cell lung): 6.29 µM
TGI (HOP-18 NSCLC): > 10 µM
TGI (SNB-78 CNS): 5.17 µM
TGI (KM20L2 colon): > 10 µM

CCOC(CN(C)C(=S)Nc1cccc2ccccc12)OCC
TGI (MDA-N): > 10 µM
TGI (MDA-MB-435): > 10 µM
TGI (MCF7 breast): > 10 µM
TGI (T-47D breast): > 10 µM

O=C(CSC(c1ccccc1)c1ccccc1)N/N=C/c1ccco1
GI50 (MDA-MB-435): 2.01 µM
TGI (MDA-MB-435): 11.5 µM
GI50 (MCF7 breast): 1.74 µM
TGI (MCF7 breast): > 5.22 µM
GI50 (T-47D breast): 28.3 µM
TGI (T-47D breast): > 100 µM

COc1ccc2c(Oc3ccc(NC(=O)c4c(C)n(CC(C)(C)O)n(-c5ccccc5)c4=O)nc3)ccnc2c1
GI50 (MDA-MB-435): 6.57 µM
TGI (MDA-MB-435): > 66.5 µM
GI50 (MCF7 breast): 26.2 µM
TGI (MCF7 breast): 97.7 µM
GI50 (T-47D breast): 25.4 µM
TGI (T-47D breast): > 100 µM

C[C@H]1CCC/C=C/[C@@H]2C[C@H](O)C[C@H]2[C@H](O)[C@@H](SCC(O)CO)CC(=O)O1 (some centres not stated)
GI50 (MDA-N): 25.5 µM
TGI (MDA-N): > 100 µM
GI50 (MDA-MB-435): 35.5 µM
TGI (MDA-MB-435): > 100 µM
GI50 (MCF7 breast): 20.5 µM
TGI (MCF7 breast): 47.8 µM
GI50 (T-47D breast): 45.2 µM
TGI (T-47D breast): > 100 µM
